Source: ChEMBL document CHEMBL1255310, “Simvastatin treatment shows no effect on the incidence of cerebral malaria or parasitemia during experimental malaria” (2008)

Tests used:
Type in all cases: functional
Plasmodium berghei [1] = test: Antiplasmodial activity against Plasmodium berghei ANKA infected in C57BL/6 mice (Mus musculus) assessed as parasitemia at 2 ug/g, intraperitoneally on days 2,4 and 6
Plasmodium berghei [2] = test: Antiplasmodial activity against Plasmodium berghei ANKA infected in C57BL/6 mice (Mus musculus) assessed as parasitemia at 0.5 ug/g, intraperitoneal on day 2, 1 ug/g, intraperitoneal on day 4 followed by 2 ug/g on day 6
Plasmodium berghei [3] = test: Antiplasmodial activity against Plasmodium berghei ANKA infected in C57BL/6 mice (Mus musculus) assessed as parasitemia at 40 ug/g, intraperitoneally on days 2,4 and 6
Plasmodium berghei [4] = test: Antiplasmodial activity against Plasmodium berghei ANKA infected in C57BL/6 mice (Mus musculus) assessed as parasitemia at 100 ug/g, perorally on days 1,3 and 5

`CCC(C)(C)C(=O)O[C@H]1C[C@@H](C)C=C2C=C[C@H](C)[C@H](CC[C@@H]3C[C@@H](O)CC(=O)O3)[C@H]21` [SIMVASTATIN] was tested, and the Activity (Plasmodium berghei [1]) was 2.38%, the Activity (Plasmodium berghei [2]) was 3.04% and the Activity (Plasmodium berghei [3]) was 2.04%. For the same compound, the Activity (Plasmodium berghei [4]) was 2.98%.
